In patent US3982931A, “N,N-di-sec.butyl-benzamide herbicides” (priority 1967, dated 1976):

Columns and labels:
oryza sativa L. (rice) = assay: activity on agrarian species, soil treatment one day after sowing; format: in vivo
Source text: (§1) The infesting species and the agrarian species have been indicated in Table 1 by letters, as follows:
P = oryza sativa L. (rice)
(§2) Method of evaluation of the results (of tests):
(§3) 0 = no activity and no difference with respect to the control;
(§4) 1 slight differences with respect to the control;
(§5) 3 = considerable activity with damages that definitely impair the further development of most of the small plants; an activity degree already useful for practical purposes;
(§6) 4 = maximum of activity with lack of germination or total containment of the small plants in the emerging stage.
(§7) In the case of an intermediate activity between two classes of the scale, both values are recorded with the one which corresponds to the preeminent activity preceding.
(§8) TABLE 2 reports the activity data of other compounds that fall within the class which is the object of this invention.
(§9) TABLE 3 reports data on the herbicidal activity against infesting herbs, while TABLE 4 reports data concerning the activity on useful species of agricultural cultivations. These tables employ the criterion explained previously. The product was spread on the soil one day after sowing, in quantities of 1, 3, 6, 8, 10, 12 and 14 kg/ha.

[1] = system: echinocloa crus-galli R.S.; assay: herbicidal activity, soil treatment one day after sowing; format: in vivo
zea mais L. (corn) = assay: activity on agrarian species, soil treatment one day after sowing; format: in vivo
Source text: as §1, §2, §3, §4, §5, §6, §7, §8, §9

setaria glauca L. = assay: herbicidal activity, soil treatment one day after sowing; format: in vivo
chenopodium album L. = assay: as above; format: in vivo
[2] = system: triticum vulgare L. (wheat); assay: activity on agrarian species, soil treatment one day after sowing; format: in vivo
Source text: as §1
N = triticum vulgare L. (wheat)
as §2, §3, §4, §5, §6, §7, §8, §9

infesting gramineae = assay: herbicidal action on infesting plants (general statements); format: in vivo; details: in words
Source text: (§10) It is understood that all the data given herein shall have no limiting character on the object of this invention.

artemisia vulgaris L. = assay: herbicidal activity, soil treatment one day after sowing; format: in vivo
useful plants = assay: phytotoxic action on useful plants (general statements); format: in vivo, useful gramineae; details: in words
Source text: as §10

[3] = system: amaranthus retroflexus L.; assay: herbicidal activity, soil treatment one day after sowing; format: in vivo
vicia sativa L. = assay: as above; format: in vivo
Procedure, shortened: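 Pre-emergence soil treatment one day after sowing; activity scored visually on a […] scale against untreated control, from slight difference (1) to no germination or total containment at emergence (4); intermediate activity recorded as both classes, preeminent value first.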

avena sativa (oats) = assay: activity on agrarian species, soil treatment one day after sowing; format: in vivo, Avena sativa L.
Source text: as §1, §2, §3, §4, §5, §6, §7, §8, §9

[4] = system: phaseolus vulgaris (bean); assay: as above; format: in vivo, Phaseolus vulgaris L.
Source text: as §1
I = phaseolus vulgaris (bean)
as §2, §3, §4, §5, §6, §7, §8, §9

pisum sativum L. (pea) = assay: as above; format: in vivo
Source text: as §1
L = pisum sativum L. (pea)
as §2, §3, §4, §5, §6, §7, §8
TABLE 3 reports data on the herbicidal activity against infesting herbs, while TABLE 4 reports data concerning the activity on useful species of agricultural cultivations. These tables employ the criterion explained previously. […]

[5] = system: beta vulgaris L. (sugar-beet); assay: as above; format: in vivo; details: 6 kg/ha
Source text: as §1
H = beta vulgaris L. (sugar-beet)
as §2, §3, §4, §5, §6, §7, §8, §9

solanum Lycopersicum L. = assay: as above; format: in vivo; details: 6 kg/ha
Source text: as §1
M = solanum Lycopersicum L.
as §2, §3, §4, §5, §6
In the case of an intermediate activity between two classes of the scale, both values are recorded with the one which corresponds to the preeminent activity preceding. […]

activity on P, 0-4 scale (oryza sativa L. (rice); in vivo)	Compound	activity on D, 0-4 scale ([1]; 2 kg/ha)	activity on D, 0-4 scale ([1]; 4 kg/ha)	activity on D, 0-4 scale ([1]; 6 kg/ha)	activity on E, 0-4 scale (setaria glauca L.; 2 kg/ha)	activity on E, 0-4 scale (setaria glauca L.; 4 kg/ha)	activity on E, 0-4 scale (setaria glauca L.; 6 kg/ha)	activity on C, 0-4 scale (chenopodium album L.; 2 kg/ha)	activity on C, 0-4 scale (chenopodium album L.; 4 kg/ha)	activity on C, 0-4 scale (chenopodium album L.; 6 kg/ha)	herbicidal action (infesting gramineae)	activity on B, 0-4 scale (artemisia vulgaris L.; 2 kg/ha)	activity on B, 0-4 scale (artemisia vulgaris L.; 4 kg/ha)	activity on B, 0-4 scale (artemisia vulgaris L.; 6 kg/ha)	phytotoxic action on useful plants (useful plants)	activity on A, 0-4 scale ([3]; 2 kg/ha)	activity on A, 0-4 scale ([3]; 4 kg/ha)	activity on A, 0-4 scale ([3]; 6 kg/ha)	activity on F, 0-4 scale (vicia sativa L.; 2 kg/ha)	activity on F, 0-4 scale (vicia sativa L.; 6 kg/ha)	other results
4	CCN(CC)C(=O)c1cc(Cl)cc(Cl)c1 [PA291, 3,5-dichloro-N,N-diethyl-benzamide, reference compound]	1-2	2-3	4	2-3	3	4	2-3	3	3	very active	3	3-4	4	phytotoxic action of considerable intensity	2-3	3	3-4	2-3	3-4	activity on O, 0-4 scale (zea mais L. (corn); in vivo): 4; activity on N, 0-4 scale ([2]; in vivo): 4; activity on F, 0-4 scale (vicia sativa L.; 4 kg/ha): 3
4-3	CC(C)N(C(=O)c1cc(Cl)cc(Cl)c1Cl)C(C)C [PA302, 2,3,5-trichloro-N,N-di-iso-propyl-benzamide, reference compound]			4			4			3	very active			2	phytotoxic action of considerable intensity			2-3		0-1	activity on D, 0-4 scale ([1]; 3 kg/ha): 4; activity on E, 0-4 scale (setaria glauca L.; 1 kg/ha): 3-4; activity on E, 0-4 scale (setaria glauca L.; 3 kg/ha): 4; activity on C, 0-4 scale (chenopodium album L.; 1 kg/ha): 2; activity on C, 0-4 scale (chenopodium album L.; 3 kg/ha): 3; activity on B, 0-4 scale (artemisia vulgaris L.; 1 kg/ha): 1-2; activity on B, 0-4 scale (artemisia vulgaris L.; 3 kg/ha): 2; activity on A, 0-4 scale ([3]; 3 kg/ha): 2; activity on F, 0-4 scale (vicia sativa L.; 1 kg/ha): 0; activity on F, 0-4 scale (vicia sativa L.; 3 kg/ha): 0-1
	CCC(C)N(C(=O)c1ccc(Cl)c(Br)c1)C(C)CC (centres unmarked) [PA489, 3-bromo,4-chloro-N,N-di-sec.butyl-benzamide]	3-2	3-4	3-4	3	4-3	4	1	1-2	2		0-1	1	3		1	1-2	3	0	0-1	activity on G, 0-4 scale (avena sativa (oats); 3 kg/ha): 0; activity on G, 0-4 scale (avena sativa (oats); 6 kg/ha): 0; activity on I, 0-4 scale ([4]; 3 kg/ha): 0; activity on I, 0-4 scale ([4]; 6 kg/ha): 0; activity on L, 0-4 scale (pisum sativum L. (pea); 3 kg/ha): 0; activity on L, 0-4 scale (pisum sativum L. (pea); 6 kg/ha): 0; activity on H, 0-4 scale [5]: 1; activity on P, 0-4 scale (oryza sativa L. (rice); 3 kg/ha): 0; activity on P, 0-4 scale (oryza sativa L. (rice); 6 kg/ha): 0; activity on O, 0-4 scale (zea mais L. (corn); 3 kg/ha): 0; activity on O, 0-4 scale (zea mais L. (corn); 6 kg/ha): 0; activity on N, 0-4 scale ([2]; 3 kg/ha): 0; activity on N, 0-4 scale ([2]; 6 kg/ha): 0; activity on M, 0-4 scale (solanum Lycopersicum L.): 1; activity on F, 0-4 scale (vicia sativa L.; 4 kg/ha): 0
